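All cell lines were grown in 96-well plates and treated with compound for 48 hours. The concentration for 50% growth inhibition is given as GI50.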 Activity calls are given as the source filed them. Rule as the data show it: active = GI50 up to about 1.1 µM and inactive = higher.
Legend:
Test in all cases: DTP human tumour cell line panel, 48 h
[1] = tested on: NCI-H226
[2] = tested on: MDA-N
[3] = tested on: SF-268
[4] = tested on: SNB-75
[5] = tested on: PC-3
[6] = tested on: HOP-62
[7] = tested on: UO-31
[8] = tested on: COLO 205
[9] = tested on: Hs-578T
[10] = tested on: HCT-15
[11] = tested on: HL-60
[12] = tested on: SNB-19
[13] = tested on: SK-OV-3
[14] = tested on: NCI/ADR-RES
[15] = tested on: HCT-116
[16] = tested on: SK-MEL-5
[17] = tested on: OVCAR-5
[18] = tested on: A498
[19] = tested on: LOX IMVI
[20] = tested on: MCF7

| SMILES | GI50 [1] | GI50 [2] | GI50 [3] | GI50 [4] | GI50 [5] | GI50 [6] | GI50 [7] | GI50 [8] | GI50 [9] | GI50 [10] [µM] | GI50 [11] | GI50 [12] | GI50 [13] | GI50 [14] | GI50 [15] | GI50 [16] | GI50 [17] | GI50 [18] | GI50 [19] | GI50 [20] |
| --- | --- | --- | --- | --- | --- | --- | --- | --- | --- | --- | --- | --- | --- | --- | --- | --- | --- | --- | --- | --- |
| CCCNC1=Nc2ccccc2NC(C)C1 (stereo unspecified) | > 100 µM (inactive) | > 100 µM (inactive) | > 100 µM (inactive) | 22.6 µM (inactive) | > 100 µM (inactive) | > 100 µM (inactive) | > 100 µM (inactive) | > 100 µM (inactive) | > 100 µM (inactive) | > 100 | > 100 µM (inactive) | > 100 µM (inactive) | > 100 µM (inactive) | > 100 µM (inactive) | > 100 µM (inactive) | > 100 µM (inactive) | > 100 µM (inactive) | > 100 µM (inactive) | – | – |
| c1ccc2sc(C3(N4CCCCC4)CCCC3)cc2c1 | 1.79 µM (inactive) | 17.4 µM (inactive) | 11.4 µM (inactive) | 15.9 µM (inactive) | – | 15 µM (inactive) | 16.9 µM (inactive) | 5.53 µM (inactive) | 14.1 µM (inactive) | 5.92 | 4.69 µM (inactive) | 13.8 µM (inactive) | 15.9 µM (inactive) | 6.24 µM (inactive) | 5.94 µM (inactive) | 10.9 µM (inactive) | 11 µM (inactive) | 12.7 µM (inactive) | 17.9 µM (inactive) | 8.02 µM (inactive) |
| O=c1oc2ccc([N+](=O)[O-])cc2c(Nc2ccc3c(c2)S(=O)(=O)c2ccccc2O3)c1[N+](=O)[O-] | 35.9 µM (inactive) | 68.1 µM (inactive) | 88.5 µM (inactive) | 73.6 µM (inactive) | 34.8 µM (inactive) | 49.9 µM (inactive) | 53.3 µM (inactive) | > 100 µM (inactive) | 72.1 µM (inactive) | 83 | > 100 µM (inactive) | 77.1 µM (inactive) | > 100 µM (inactive) | > 100 µM (inactive) | 73.5 µM (inactive) | 81.8 µM (inactive) | > 100 µM (inactive) | – | 78.2 µM (inactive) | > 100 µM (inactive) |
| CCOC(=O)C(=C(SC)SC)c1nn2c(=O)cc(C)nc2s1 | 21.4 µM (inactive) | 16.4 µM (inactive) | 22.1 µM (inactive) | 31.4 µM (inactive) | 23.3 µM (inactive) | > 100 µM (inactive) | 19.5 µM (inactive) | 18.6 µM (inactive) | 43.9 µM (inactive) | 17.1 | 17.4 µM (inactive) | 27.2 µM (inactive) | 69.7 µM (inactive) | 36.5 µM (inactive) | 16.4 µM (inactive) | 22 µM (inactive) | 28.4 µM (inactive) | – | 15.7 µM (inactive) | 20.5 µM (inactive) |
| O=C(O)C(NCc1ccccc1)C(NCc1ccccc1)C(=O)O (stereo unspecified) | > 100 µM (inactive) | > 100 µM (inactive) | > 100 µM (inactive) | > 100 µM (inactive) | – | > 100 µM (inactive) | > 100 µM (inactive) | > 100 µM (inactive) | > 100 µM (inactive) | > 100 | > 100 µM (inactive) | > 100 µM (inactive) | > 100 µM (inactive) | > 100 µM (inactive) | > 100 µM (inactive) | > 100 µM (inactive) | – | > 100 µM (inactive) | > 100 µM (inactive) | > 100 µM (inactive) |
| CC1(C)C2CCC(O)(C2)C1N (stereo unspecified) | > 100 µM (inactive) | > 100 µM (inactive) | > 100 µM (inactive) | > 100 µM (inactive) | > 100 µM (inactive) | > 100 µM (inactive) | > 100 µM (inactive) | > 100 µM (inactive) | > 100 µM (inactive) | > 100 | – | > 100 µM (inactive) | > 100 µM (inactive) | > 100 µM (inactive) | > 100 µM (inactive) | > 100 µM (inactive) | > 100 µM (inactive) | – | > 100 µM (inactive) | > 100 µM (inactive) |
| CC1C(=O)OCC2=CCN3CCC(OC(=O)C(C)C1(C)O)C23 (stereo unspecified) | > 100 µM (inactive) | > 100 µM (inactive) | > 100 µM (inactive) | > 100 µM (inactive) | > 100 µM (inactive) | – | > 100 µM (inactive) | > 100 µM (inactive) | > 100 µM (inactive) | > 100 | > 100 µM (inactive) | > 100 µM (inactive) | > 100 µM (inactive) | > 100 µM (inactive) | > 100 µM (inactive) | > 100 µM (inactive) | > 100 µM (inactive) | > 100 µM (inactive) | > 100 µM (inactive) | – |
| CCN1CCCC(C#N)(c2ccccc2)CC1 (stereo unspecified) | – | > 100 µM (inactive) | > 100 µM (inactive) | 99.5 µM (inactive) | > 100 µM (inactive) | > 100 µM (inactive) | > 100 µM (inactive) | > 100 µM (inactive) | 61.7 µM (inactive) | > 100 | > 100 µM (inactive) | > 100 µM (inactive) | > 100 µM (inactive) | > 100 µM (inactive) | > 100 µM (inactive) | > 100 µM (inactive) | > 100 µM (inactive) | > 100 µM (inactive) | – | – |
| COc1cccc(/C(CC(O)(C(F)(F)F)C(F)(F)F)=N\N(C)C)c1 | > 100 µM (inactive) | > 100 µM (inactive) | > 100 µM (inactive) | > 100 µM (inactive) | > 100 µM (inactive) | > 100 µM (inactive) | > 100 µM (inactive) | > 100 µM (inactive) | > 100 µM (inactive) | > 100 | > 100 µM (inactive) | > 100 µM (inactive) | > 100 µM (inactive) | > 100 µM (inactive) | > 100 µM (inactive) | > 100 µM (inactive) | > 100 µM (inactive) | > 100 µM (inactive) | > 100 µM (inactive) | – |
| O=C1CCCC/C1=C\c1ccc([N+](=O)[O-])cc1 | – | 17.8 µM (inactive) | 34.6 µM (inactive) | 18.3 µM (inactive) | 2.03 µM (inactive) | 11.5 µM (inactive) | 19.3 µM (inactive) | 18.4 µM (inactive) | 28.3 µM (inactive) | – | 42.5 µM (inactive) | 17.1 µM (inactive) | 17.2 µM (inactive) | 19.5 µM (inactive) | 12.4 µM (inactive) | 27.2 µM (inactive) | 54.2 µM (inactive) | – | 1.79 µM (inactive) | 18.5 µM (inactive) |
| Nc1ccc(S(=O)(=O)Nc2cnc3ccccc3n2)cc1 [SULFAQUINOXALINE] | > 100 µM (inactive) | > 100 µM (inactive) | > 87.9 µM (inactive) | 26.7 µM (inactive) | > 100 µM (inactive) | > 100 µM (inactive) | > 100 µM (inactive) | > 100 µM (inactive) | < 0.01 µM (active) | > 100 | > 100 µM (inactive) | > 100 µM (inactive) | > 100 µM (inactive) | > 100 µM (inactive) | > 100 µM (inactive) | > 100 µM (inactive) | > 100 µM (inactive) | > 100 µM (inactive) | > 100 µM (inactive) | – |

— ChEMBL document CHEMBL1201862, “PubChem BioAssay data set” (2004)
